Experimental data from ChEMBL document CHEMBL2406914 (ACS Med Chem Lett, 2013).

Columns and labels:
[1] = molecular target: T1, Prostaglandin G/H synthase 1 (Ovis aries, UniProt P05979); experiment: Inhibition of ovine COX1-mediated arachidonic acid oxidation using [14C]AA as substrate after 5 mins by GC/NICI/MS analysis
T1 sequence (P05979 whole entry): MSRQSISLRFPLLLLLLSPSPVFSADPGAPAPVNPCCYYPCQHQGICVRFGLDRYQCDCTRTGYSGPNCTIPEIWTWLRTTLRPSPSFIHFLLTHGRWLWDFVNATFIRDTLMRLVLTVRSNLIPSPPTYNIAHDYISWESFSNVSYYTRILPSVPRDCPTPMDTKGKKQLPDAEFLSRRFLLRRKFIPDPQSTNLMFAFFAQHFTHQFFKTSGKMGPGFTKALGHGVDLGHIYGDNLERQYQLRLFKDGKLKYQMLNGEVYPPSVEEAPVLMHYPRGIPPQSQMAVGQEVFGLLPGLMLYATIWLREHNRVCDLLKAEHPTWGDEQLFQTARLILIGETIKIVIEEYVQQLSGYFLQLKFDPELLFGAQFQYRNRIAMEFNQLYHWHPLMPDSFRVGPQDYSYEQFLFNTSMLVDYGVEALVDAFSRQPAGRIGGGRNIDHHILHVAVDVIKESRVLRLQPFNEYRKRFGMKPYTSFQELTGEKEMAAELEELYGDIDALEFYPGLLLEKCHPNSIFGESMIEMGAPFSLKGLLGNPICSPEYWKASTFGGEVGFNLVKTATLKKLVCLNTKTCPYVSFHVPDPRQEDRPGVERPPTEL

HepG2 = experiment: Cytotoxicity against human HepG2 cells assessed as intracellular ATP level after 24 hrs by luciferase reporter gene assay; assay type: cell-based; conditions: HepG2, 24 h
[2] = Metabolic stability in rat liver microsomes assessed as compound remaining at 10 uM after 30 mins by LC-MS analysis; conditions: human
Myoglobin = molecular target: T2, Myoglobin (Homo sapiens, UniProt P02144); experiment: Inhibition of myoglobin (unknown origin)-mediated arachidonic acid oxidation using [14C]AA as substrate after 3 hrs by GC/NICI/MS analysis
T2 sequence (P02144 whole entry): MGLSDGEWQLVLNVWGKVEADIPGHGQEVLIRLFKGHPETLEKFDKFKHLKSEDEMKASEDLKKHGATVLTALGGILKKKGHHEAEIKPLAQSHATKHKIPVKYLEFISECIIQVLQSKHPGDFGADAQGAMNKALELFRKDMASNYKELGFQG

Row | Structure (SMILES) | IC50 [1] | EC50 (HepG2) | remaining at 0.5 h, 10 µM [2] | IC50 (Myoglobin)
1 | Cc1nc2c(c(C)c1O)CNC(=O)N2 | > 1000 µM | 2960 µM | 87% | 
2 | Cc1nc2c(c(C)c1O)COC(=O)N2 | 198 µM | > 5000 µM | 97% | 
3 | O=C1NCc2cc(O)cnc2N1 | 451 µM | 4760 µM | 108% | 
4 | CC(=O)Nc1ccc(O)cc1 [ACETAMINOPHEN] | 372 µM | 594 µM |  | 2.3 µM
